In publication PMC12586182 (Frontiers in Oncology, 2025):

Columns and labels:
Assay in all cases: Kinase panel profiling at 1 µmol/L (mobility shift assay, Carna)
Assay type in all cases: biochemical
Settings in all cases: 1 µmol/L of BTK inhibitor
ABL = target: T1, ABL (Homo sapiens, UniProt P00519)
T1 construct: purchased Carna Biosciences

FES = target: T2, FES (Homo sapiens, UniProt P07332)
T2 construct: purchased Carna Biosciences

IGF1R = target: T3, IGF1R (Homo sapiens, UniProt P08069)
T3 construct: purchased Carna Biosciences
T3 sequence (P08069 31-1367): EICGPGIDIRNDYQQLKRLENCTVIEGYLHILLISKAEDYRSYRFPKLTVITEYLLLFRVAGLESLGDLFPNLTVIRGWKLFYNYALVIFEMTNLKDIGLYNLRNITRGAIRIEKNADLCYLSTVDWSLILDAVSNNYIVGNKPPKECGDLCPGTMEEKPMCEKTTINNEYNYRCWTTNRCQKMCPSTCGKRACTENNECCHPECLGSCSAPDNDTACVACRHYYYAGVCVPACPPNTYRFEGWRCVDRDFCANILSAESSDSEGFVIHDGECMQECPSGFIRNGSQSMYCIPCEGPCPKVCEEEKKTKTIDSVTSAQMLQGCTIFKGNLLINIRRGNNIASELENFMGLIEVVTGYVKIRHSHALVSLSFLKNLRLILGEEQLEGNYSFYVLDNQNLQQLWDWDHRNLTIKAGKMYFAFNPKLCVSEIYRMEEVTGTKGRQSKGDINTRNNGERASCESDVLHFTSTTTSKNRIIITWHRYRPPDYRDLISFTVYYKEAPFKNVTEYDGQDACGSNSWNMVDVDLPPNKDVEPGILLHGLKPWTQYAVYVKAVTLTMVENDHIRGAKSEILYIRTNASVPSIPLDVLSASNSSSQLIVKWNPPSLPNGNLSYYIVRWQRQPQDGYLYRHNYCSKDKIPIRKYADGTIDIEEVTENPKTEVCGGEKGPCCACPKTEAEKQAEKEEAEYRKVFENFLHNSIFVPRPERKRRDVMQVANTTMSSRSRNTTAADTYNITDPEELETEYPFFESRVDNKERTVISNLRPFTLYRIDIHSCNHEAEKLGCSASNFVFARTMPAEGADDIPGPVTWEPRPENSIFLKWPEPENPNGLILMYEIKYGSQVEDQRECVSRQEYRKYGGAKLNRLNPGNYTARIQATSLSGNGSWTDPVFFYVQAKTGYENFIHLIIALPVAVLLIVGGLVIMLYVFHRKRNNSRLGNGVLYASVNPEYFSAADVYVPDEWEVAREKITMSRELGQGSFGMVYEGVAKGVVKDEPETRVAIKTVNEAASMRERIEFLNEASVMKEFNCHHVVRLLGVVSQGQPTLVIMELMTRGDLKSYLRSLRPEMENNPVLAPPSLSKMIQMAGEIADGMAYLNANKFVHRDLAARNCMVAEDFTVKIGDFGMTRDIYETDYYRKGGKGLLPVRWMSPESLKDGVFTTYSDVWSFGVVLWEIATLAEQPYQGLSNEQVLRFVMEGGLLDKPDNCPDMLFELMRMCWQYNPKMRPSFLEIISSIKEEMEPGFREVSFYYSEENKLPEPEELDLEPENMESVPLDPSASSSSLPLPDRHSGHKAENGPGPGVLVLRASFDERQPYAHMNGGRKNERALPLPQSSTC

ROS = target: T4, ROS (Homo sapiens, UniProt P08922)
T4 construct: purchased Carna Biosciences

SRM = target: T5, SRM (Homo sapiens, UniProt Q9H3Y6)
T5 construct: purchased Carna Biosciences

TXK = target: T6, TXK (Homo sapiens, UniProt P42681)
T6 construct: purchased Carna Biosciences
T6 sequence (P42681 1-527): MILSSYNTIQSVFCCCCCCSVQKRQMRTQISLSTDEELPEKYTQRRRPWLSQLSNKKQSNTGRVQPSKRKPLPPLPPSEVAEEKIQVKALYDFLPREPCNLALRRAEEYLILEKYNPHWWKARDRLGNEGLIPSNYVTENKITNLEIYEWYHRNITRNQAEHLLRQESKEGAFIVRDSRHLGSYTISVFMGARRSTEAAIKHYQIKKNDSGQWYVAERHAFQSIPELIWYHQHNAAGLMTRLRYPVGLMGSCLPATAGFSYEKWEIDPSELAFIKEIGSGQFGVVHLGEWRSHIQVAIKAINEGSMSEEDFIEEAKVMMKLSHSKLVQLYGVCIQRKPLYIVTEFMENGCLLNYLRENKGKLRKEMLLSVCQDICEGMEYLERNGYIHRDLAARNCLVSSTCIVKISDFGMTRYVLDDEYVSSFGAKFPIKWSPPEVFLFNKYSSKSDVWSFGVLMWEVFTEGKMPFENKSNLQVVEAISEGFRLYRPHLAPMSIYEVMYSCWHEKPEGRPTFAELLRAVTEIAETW

AurA = target: T7, AurA (Homo sapiens, UniProt O14965)
T7 construct: purchased Carna Biosciences
T7 sequence (O14965 1-403): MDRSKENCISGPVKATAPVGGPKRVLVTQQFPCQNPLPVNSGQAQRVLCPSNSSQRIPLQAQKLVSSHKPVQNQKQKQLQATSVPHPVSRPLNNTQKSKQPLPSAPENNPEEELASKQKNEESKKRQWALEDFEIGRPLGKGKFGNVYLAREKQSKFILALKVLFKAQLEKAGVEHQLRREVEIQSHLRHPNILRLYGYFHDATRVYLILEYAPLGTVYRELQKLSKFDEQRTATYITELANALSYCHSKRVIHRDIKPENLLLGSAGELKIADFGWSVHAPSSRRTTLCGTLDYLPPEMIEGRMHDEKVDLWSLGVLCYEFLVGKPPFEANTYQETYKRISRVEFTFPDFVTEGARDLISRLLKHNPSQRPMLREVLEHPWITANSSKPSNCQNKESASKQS

IKKα = target: T8, IKKα (Homo sapiens, UniProt O15111)
T8 construct: purchased Carna Biosciences
T8 sequence (O15111 1-745): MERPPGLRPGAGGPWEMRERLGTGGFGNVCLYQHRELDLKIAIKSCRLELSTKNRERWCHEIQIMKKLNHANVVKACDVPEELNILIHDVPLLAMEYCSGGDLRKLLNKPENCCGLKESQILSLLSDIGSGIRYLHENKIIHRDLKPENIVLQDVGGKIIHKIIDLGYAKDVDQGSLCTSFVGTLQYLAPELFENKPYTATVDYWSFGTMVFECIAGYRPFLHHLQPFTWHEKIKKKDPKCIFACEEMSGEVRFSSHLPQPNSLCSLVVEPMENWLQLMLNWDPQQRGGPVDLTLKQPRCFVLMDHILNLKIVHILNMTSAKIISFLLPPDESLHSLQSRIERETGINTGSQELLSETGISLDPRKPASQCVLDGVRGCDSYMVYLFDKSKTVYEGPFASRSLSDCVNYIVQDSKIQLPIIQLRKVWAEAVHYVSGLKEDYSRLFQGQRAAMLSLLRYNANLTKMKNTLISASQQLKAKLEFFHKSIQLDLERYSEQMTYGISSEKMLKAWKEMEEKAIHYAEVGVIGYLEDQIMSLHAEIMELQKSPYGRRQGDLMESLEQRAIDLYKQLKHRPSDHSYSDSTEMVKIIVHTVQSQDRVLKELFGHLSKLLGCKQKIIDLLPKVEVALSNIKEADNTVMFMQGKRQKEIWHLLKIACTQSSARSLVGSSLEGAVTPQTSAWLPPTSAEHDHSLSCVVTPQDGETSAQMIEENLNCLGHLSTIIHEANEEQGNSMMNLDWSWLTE

MST4 = target: T9, MST4 (Homo sapiens, UniProt Q9P289)
T9 construct: purchased Carna Biosciences
T9 sequence (Q9P289 whole entry): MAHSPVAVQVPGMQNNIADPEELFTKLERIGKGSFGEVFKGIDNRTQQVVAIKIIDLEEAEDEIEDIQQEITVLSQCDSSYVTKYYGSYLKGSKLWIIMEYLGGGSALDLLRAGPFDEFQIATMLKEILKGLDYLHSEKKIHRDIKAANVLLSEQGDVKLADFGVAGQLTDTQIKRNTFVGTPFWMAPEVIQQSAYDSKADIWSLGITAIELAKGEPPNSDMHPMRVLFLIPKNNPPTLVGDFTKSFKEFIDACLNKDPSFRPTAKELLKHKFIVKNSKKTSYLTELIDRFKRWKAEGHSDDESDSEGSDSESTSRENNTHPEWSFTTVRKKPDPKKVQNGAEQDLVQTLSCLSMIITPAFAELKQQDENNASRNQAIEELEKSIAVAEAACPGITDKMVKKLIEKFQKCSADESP

PAK2 = target: T10, PAK2 (Homo sapiens, UniProt Q13177)
T10 construct: purchased Carna Biosciences
T10 sequence (Q13177 whole entry): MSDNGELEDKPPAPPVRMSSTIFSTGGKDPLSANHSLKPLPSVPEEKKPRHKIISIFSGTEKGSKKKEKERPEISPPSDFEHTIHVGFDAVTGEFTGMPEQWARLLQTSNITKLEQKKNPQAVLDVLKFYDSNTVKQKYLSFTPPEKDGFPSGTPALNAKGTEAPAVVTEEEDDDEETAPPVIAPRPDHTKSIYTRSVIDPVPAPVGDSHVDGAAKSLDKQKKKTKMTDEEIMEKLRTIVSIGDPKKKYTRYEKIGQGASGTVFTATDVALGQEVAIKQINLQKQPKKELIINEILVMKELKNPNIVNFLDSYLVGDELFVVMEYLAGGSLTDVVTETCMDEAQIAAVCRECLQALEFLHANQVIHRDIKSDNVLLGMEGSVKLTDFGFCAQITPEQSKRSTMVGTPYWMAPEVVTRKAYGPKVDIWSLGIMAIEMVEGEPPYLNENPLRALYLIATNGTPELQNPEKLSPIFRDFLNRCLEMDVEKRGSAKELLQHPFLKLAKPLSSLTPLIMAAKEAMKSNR

PAK5 = target: T11, PAK5 (Homo sapiens, UniProt Q9P286)
T11 construct: purchased Carna Biosciences

PRKX = target: T12, PRKX (Homo sapiens, UniProt P51817)
T12 construct: purchased Carna Biosciences
T12 sequence (P51817 1-358): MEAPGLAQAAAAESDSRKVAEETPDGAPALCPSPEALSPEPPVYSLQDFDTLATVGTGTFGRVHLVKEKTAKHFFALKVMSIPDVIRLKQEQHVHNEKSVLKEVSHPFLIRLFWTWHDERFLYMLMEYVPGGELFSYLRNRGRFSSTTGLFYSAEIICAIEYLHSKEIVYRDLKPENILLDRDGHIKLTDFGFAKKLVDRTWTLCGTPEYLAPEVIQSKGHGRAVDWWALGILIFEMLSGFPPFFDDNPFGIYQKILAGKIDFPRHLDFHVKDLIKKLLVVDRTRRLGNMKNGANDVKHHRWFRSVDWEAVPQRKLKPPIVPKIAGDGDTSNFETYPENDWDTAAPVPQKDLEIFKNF

WNK1 = target: T13, WNK1 (Homo sapiens, UniProt Q9H4A3)
T13 construct: purchased Carna Biosciences
T13 sequence (Q9H4A3 whole entry): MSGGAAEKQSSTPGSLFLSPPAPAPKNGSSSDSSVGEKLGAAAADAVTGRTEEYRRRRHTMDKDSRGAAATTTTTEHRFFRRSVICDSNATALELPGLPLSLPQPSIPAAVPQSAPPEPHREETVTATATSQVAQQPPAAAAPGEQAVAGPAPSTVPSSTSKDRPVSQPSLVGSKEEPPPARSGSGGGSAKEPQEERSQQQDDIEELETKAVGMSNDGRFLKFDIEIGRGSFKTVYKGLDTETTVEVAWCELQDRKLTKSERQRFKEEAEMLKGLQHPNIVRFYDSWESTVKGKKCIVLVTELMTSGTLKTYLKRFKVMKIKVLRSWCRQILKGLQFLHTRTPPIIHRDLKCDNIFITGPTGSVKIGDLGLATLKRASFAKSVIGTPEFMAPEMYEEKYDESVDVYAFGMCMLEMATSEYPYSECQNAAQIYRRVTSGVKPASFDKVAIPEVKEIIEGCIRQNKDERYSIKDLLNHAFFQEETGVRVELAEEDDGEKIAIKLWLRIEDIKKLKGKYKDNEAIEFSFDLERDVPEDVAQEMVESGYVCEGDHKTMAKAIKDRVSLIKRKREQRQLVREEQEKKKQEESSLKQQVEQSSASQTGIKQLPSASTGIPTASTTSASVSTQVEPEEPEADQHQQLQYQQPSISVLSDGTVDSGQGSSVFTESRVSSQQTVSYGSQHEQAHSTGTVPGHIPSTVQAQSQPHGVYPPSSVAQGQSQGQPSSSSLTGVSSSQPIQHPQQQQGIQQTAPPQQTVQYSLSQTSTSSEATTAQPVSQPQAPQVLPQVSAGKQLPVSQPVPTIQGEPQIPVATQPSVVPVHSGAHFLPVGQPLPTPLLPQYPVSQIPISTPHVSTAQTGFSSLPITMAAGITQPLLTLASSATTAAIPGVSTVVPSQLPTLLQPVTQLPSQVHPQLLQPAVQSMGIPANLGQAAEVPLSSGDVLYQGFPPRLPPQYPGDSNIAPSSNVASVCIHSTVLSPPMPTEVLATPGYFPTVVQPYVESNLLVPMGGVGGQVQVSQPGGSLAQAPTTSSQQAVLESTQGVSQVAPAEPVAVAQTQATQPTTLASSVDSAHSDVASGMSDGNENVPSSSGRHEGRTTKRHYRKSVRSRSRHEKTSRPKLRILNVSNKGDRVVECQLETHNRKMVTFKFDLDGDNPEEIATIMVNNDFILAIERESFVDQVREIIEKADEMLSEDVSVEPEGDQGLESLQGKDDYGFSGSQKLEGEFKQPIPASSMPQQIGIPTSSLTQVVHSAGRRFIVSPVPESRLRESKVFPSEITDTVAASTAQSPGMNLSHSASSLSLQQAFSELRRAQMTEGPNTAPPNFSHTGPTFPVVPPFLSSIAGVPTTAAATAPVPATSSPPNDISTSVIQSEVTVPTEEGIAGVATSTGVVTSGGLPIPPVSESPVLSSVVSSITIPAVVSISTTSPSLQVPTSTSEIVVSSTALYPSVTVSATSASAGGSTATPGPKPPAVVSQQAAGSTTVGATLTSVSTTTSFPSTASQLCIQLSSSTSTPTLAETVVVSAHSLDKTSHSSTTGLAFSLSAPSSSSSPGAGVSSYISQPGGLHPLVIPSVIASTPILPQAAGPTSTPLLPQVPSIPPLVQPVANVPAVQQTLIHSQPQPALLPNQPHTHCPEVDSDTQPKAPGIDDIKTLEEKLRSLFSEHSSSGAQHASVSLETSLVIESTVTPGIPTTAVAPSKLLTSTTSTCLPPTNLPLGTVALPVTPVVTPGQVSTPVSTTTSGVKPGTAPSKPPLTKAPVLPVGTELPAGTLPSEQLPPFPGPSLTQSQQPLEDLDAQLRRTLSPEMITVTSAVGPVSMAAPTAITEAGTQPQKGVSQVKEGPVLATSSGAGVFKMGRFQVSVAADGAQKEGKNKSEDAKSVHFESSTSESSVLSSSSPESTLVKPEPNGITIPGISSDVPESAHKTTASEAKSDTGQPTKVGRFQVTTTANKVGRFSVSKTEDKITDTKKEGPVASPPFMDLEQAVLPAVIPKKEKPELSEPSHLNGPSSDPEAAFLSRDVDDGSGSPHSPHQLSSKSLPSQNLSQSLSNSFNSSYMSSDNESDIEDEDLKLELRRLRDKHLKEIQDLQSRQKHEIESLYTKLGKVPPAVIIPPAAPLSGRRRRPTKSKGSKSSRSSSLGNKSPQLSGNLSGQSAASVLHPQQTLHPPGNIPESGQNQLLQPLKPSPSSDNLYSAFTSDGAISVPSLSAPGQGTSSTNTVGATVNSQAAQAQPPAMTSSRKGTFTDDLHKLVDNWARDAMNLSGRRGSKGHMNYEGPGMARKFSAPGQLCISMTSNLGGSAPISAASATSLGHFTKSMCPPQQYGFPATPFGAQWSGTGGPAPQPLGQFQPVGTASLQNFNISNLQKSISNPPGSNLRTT

## CC#CC(=O)N1CCC[C@H]1c1nc(-c2ccc(C(=O)Nc3ccccn3)cc2)c2c(N)nccn12 [acalabrutinib]
ABL
  Percentage inhibition of kinase enzyme activity: -2.81%
FES
  Percentage inhibition of kinase enzyme activity: -6.35%
IGF1R
  Percentage inhibition of kinase enzyme activity: 0.47%
ROS
  Percentage inhibition of kinase enzyme activity: 1.79%
SRM
  Percentage inhibition of kinase enzyme activity: 39.49%
TXK
  Percentage inhibition of kinase enzyme activity: 67.66%
AurA
  Percentage inhibition of kinase enzyme activity: 2.34%
IKKα
  Percentage inhibition of kinase enzyme activity: -1.45%
MST4
  Percentage inhibition of kinase enzyme activity: -6.42%
PAK2
  Percentage inhibition of kinase enzyme activity: -5.20%
PAK5
  Percentage inhibition of kinase enzyme activity: -0.37%
PRKX
  Percentage inhibition of kinase enzyme activity: -4.59%
WNK1
  Percentage inhibition of kinase enzyme activity: 5.36%

## C=CC(=O)N1CCC[C@@H](n2nc(-c3ccc(Oc4ccccc4)cc3)c3c(N)ncnc32)C1 [ibrutinib]
ABL
  Percentage inhibition of kinase enzyme activity: 7.80%
FES
  Percentage inhibition of kinase enzyme activity: 0.68%
IGF1R
  Percentage inhibition of kinase enzyme activity: 7.45%
ROS
  Percentage inhibition of kinase enzyme activity: 4.82%
SRM
  Percentage inhibition of kinase enzyme activity: 102.20%
TXK
  Percentage inhibition of kinase enzyme activity: 98.38%
AurA
  Percentage inhibition of kinase enzyme activity: 29.84%
IKKα
  Percentage inhibition of kinase enzyme activity: 4.34%
MST4
  Percentage inhibition of kinase enzyme activity: 1.46%
PAK2
  Percentage inhibition of kinase enzyme activity: -5.81%
PAK5
  Percentage inhibition of kinase enzyme activity: 12.42%
PRKX
  Percentage inhibition of kinase enzyme activity: 0.66%
WNK1
  Percentage inhibition of kinase enzyme activity: 2.30%

## O=C(c1ccc(Oc2ccccc2)cc1Cl)c1c[nH]c2ncnc(N[C@@H]3CC[C@@H](CO)OC3)c12 [nemtabrutinib]
ABL
  Percentage inhibition of kinase enzyme activity: 56.26%
FES
  Percentage inhibition of kinase enzyme activity: 93.26%
IGF1R
  Percentage inhibition of kinase enzyme activity: 99.20%
ROS
  Percentage inhibition of kinase enzyme activity: 60.67%
SRM
  Percentage inhibition of kinase enzyme activity: 102.16%
TXK
  Percentage inhibition of kinase enzyme activity: 97.01%
AurA
  Percentage inhibition of kinase enzyme activity: 77.82%
IKKα
  Percentage inhibition of kinase enzyme activity: 1.80%
MST4
  Percentage inhibition of kinase enzyme activity: 57.51%
PAK2
  Percentage inhibition of kinase enzyme activity: 93.68%
PAK5
  Percentage inhibition of kinase enzyme activity: 66.81%
PRKX
  Percentage inhibition of kinase enzyme activity: 1.65%
WNK1
  Percentage inhibition of kinase enzyme activity: 8.78%

## COc1ccc(F)cc1C(=O)NCc1ccc(-c2nn([C@@H](C)C(F)(F)F)c(N)c2C(N)=O)cc1 [pirtobrutinib]
ABL
  Percentage inhibition of kinase enzyme activity: 2.26%
FES
  Percentage inhibition of kinase enzyme activity: 11.87%
IGF1R
  Percentage inhibition of kinase enzyme activity: 0.28%
ROS
  Percentage inhibition of kinase enzyme activity: 3.20%
SRM
  Percentage inhibition of kinase enzyme activity: 18.61%
TXK
  Percentage inhibition of kinase enzyme activity: 43.03%
AurA
  Percentage inhibition of kinase enzyme activity: 27.17%
IKKα
  Percentage inhibition of kinase enzyme activity: -16.22%
MST4
  Percentage inhibition of kinase enzyme activity: -7.97%
PAK2
  Percentage inhibition of kinase enzyme activity: 8.29%
PAK5
  Percentage inhibition of kinase enzyme activity: -1.30%
PRKX
  Percentage inhibition of kinase enzyme activity: 9.51%
WNK1
  Percentage inhibition of kinase enzyme activity: -5.02%

## C=CC(=O)N1CCC([C@@H]2CCNc3c(C(N)=O)c(-c4ccc(Oc5ccccc5)cc4)nn32)CC1 [zanubrutinib]
FES
  Percentage inhibition of kinase enzyme activity: 4.53%
IGF1R
  Percentage inhibition of kinase enzyme activity: 4.03%
SRM
  Percentage inhibition of kinase enzyme activity: 57.79%
TXK
  Percentage inhibition of kinase enzyme activity: 89.43%
IKKα
  Percentage inhibition of kinase enzyme activity: -9.91%
PAK2
  Percentage inhibition of kinase enzyme activity: 9.82%
